Test systems include HL-60; RXF 393; Malme-3M; MDA-MB-231; NCI-H460; HOP-92; SF-268; HOP-62; LOX IMVI; SF-539; CCRF-CEM; A498; Hs-578T; RPMI-8226; UO-31; OVCAR-4; UACC-257; TK-10.
Common to all, as to assay: DTP human tumour cell line panel, 48 h

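Assay format: 96-well plates, 48-hour exposure. GI50 = concentration required for 50% inhibition of growth.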 Activity calls are given as the source filed them. No stated cut-off is given here; in the data, active = GI50 up to about 1.1 µM and inactive = higher.

Consider four compounds from ChEMBL document CHEMBL1201862, “PubChem BioAssay data set” (2004).

Usually GI50 stands for the concentration at which growth is held to half of that of the control.

For `NC(=O)C1=C(O)C[C@@H]2CC3Cc4cccc(O)c4C(=O)C3=C(O)[C@]2(O)C1=O` (stereo partly specified), the GI50 with HL-60 is 2.83 µM (inactive); with RXF 393 it was 1.51 µM (inactive); in the assay with Malme-3M, 2 µM (inactive); with MDA-MB-231, 2.78 µM (inactive); in the assay with NCI-H460 it was 1.56 µM (inactive); with HOP-92 it was 1.67 µM (inactive). Further, the GI50 in the assay with SF-268 is 2.02 µM (inactive); in the assay on HOP-62 it was 3.31 µM (inactive); in the assay on LOX IMVI, 1.77 µM (inactive); in the assay with SF-539, 1.64 µM (inactive); in the assay with CCRF-CEM it was 0.873 µM (active); in the assay with A498, 2.74 µM (inactive). The GI50 in the assay on Hs-578T was 2.81 µM (inactive); with RPMI-8226, 0.755 µM (active); with UO-31, 2.9 µM (inactive); in the assay with OVCAR-4, 10.7 µM (inactive); with UACC-257, 3.07 µM (inactive); with TK-10, 4.86 µM (inactive).

As for `CC1(C)N=C(N)N=C(N)N1c1cccc(C(=O)Nc2ccc(S(=O)(=O)F)cc2)c1`, the GI50 with HL-60, with RXF 393, in the assay on Malme-3M, with MDA-MB-231, in the assay with NCI-H460 and with HOP-92 was > 100 µM (inactive) in each case. For the same compound, the GI50 in the assay on SF-268, in the assay on HOP-62, in the assay with LOX IMVI, in the assay on SF-539, in the assay on CCRF-CEM and with A498 was > 100 µM (inactive) throughout. Further, the GI50 in the assay on Hs-578T, in the assay on RPMI-8226, in the assay with UO-31, in the assay on OVCAR-4, with UACC-257 and in the assay with TK-10 was > 100 µM (inactive) each time.

As to `C/C=C(\C)c1cc(=O)c2c(C)cc3c(c2o1)C(=O)c1c(O)c(C2CC(C)(N(C)C)C(OC(C)=O)C(C)O2)cc(C2CC(N(C)C)C(O)C(C)O2)c1C3=O` (stereo unspecified), the GI50 is 0.438 µM (active) with HL-60; 0.505 µM (active) in the assay with RXF 393; 0.352 µM (active) with Malme-3M; 1.14 µM (inactive) in the assay with MDA-MB-231; 0.00982 µM (active) in the assay with NCI-H460; 1.45 µM (inactive) in the assay on HOP-92. Besides, the GI50 is 0.655 µM (active) in the assay on SF-268; 0.891 µM (active) with HOP-62; 0.731 µM (active) in the assay with LOX IMVI; 0.574 µM (active) in the assay on SF-539; 3.12 µM (inactive) in the assay on CCRF-CEM; 1.48 µM (inactive) with A498. Moreover, the GI50 was 2 µM (inactive) in the assay with Hs-578T; 1.08 µM (active) with RPMI-8226; 0.948 µM (active) in the assay on UO-31; 1.48 µM (inactive) with OVCAR-4; 1.49 µM (inactive) in the assay on UACC-257; 1.06 µM (active) in the assay on TK-10.

Take `C=CCN1CCC(OC(=O)C(O)(/C=C\CC)C2CCCC2)CC1` (stereo unspecified): the GI50 is > 100 µM (inactive) in the assay on HL-60; > 100 µM (inactive) in the assay on RXF 393; > 100 µM (inactive) in the assay on Malme-3M; > 100 µM (inactive) with MDA-MB-231; 38.2 µM (inactive) in the assay with HOP-92; > 100 µM (inactive) in the assay with SF-268. In addition, the GI50 in the assay on HOP-62, in the assay on LOX IMVI, with SF-539, in the assay with CCRF-CEM, in the assay on A498 and in the assay with Hs-578T was > 100 µM (inactive) throughout. Further, the GI50 in the assay on RPMI-8226 is > 100 µM (inactive); with UO-31, > 100 µM (inactive); with OVCAR-4 it was > 100 µM (inactive); with UACC-257, 0.525 µM (active); in the assay on TK-10 it was > 100 µM (inactive).
